Literature values as cited in patent US12193471B2, “Aerosolizable formulation” (NICOVENTURES TRADING LIMITED, priority 2018, dated 2025).

Settings: compared to base cyclodextrins such as β-cyclodextrin

2-hydroxy-propyl-β-cyclodextrin
solubility in water: increased solubility in water
